Laboratory results as given in article PMC8480901 (PLoS ONE, 2021).
Where “and” joins values, the source holds several entries; their conditions need not be identical. Identical values can stand only once.

System: human PBMCs
Experiment: LPS-induced cytokine and chemokine levels in human PBMC supernatant (Luminex, ELISA)
Format: cell-based
Conditions: for IL-1β % reduction / IL-1β [pg/mL], Mean / IL-1β [pg/mL], individual value / IL-6 % reduction / IL-6 [pg/mL], Mean / IL-6 [pg/mL], individual value / IL-8 % reduction / IL-8 [pg/mL], Mean / IL-8 [pg/mL], individual value / TNF-α % reduction / TNF-α [pg/mL], Mean / TNF-α [pg/mL], individual value: LPS-stimulated human PBMC supernatant

C[C@@H]1C[C@H]2[C@@H]3CCC4=CC(=O)C=C[C@]4(C)[C@@]3(F)[C@@H](O)C[C@]2(C)[C@@]1(O)C(=O)CO [Dexamethasone]
IL-1β % reduction (0.0003 µM): -0.241%
IL-1β [pg/mL], Mean (0.0003 µM): 12816 pg/mL
IL-1β [pg/mL], individual value (0.0003 µM): 13584 pg/mL and 12048 pg/mL
IL-6 % reduction (0.0003 µM): 11%
IL-6 [pg/mL], Mean (0.0003 µM): 31175 pg/mL
IL-6 [pg/mL], individual value (0.0003 µM): 28443 pg/mL and 33908 pg/mL
IL-8 % reduction (0.0003 µM): 3.74%
IL-8 [pg/mL], Mean (0.0003 µM): 2934 pg/mL
IL-8 [pg/mL], individual value (0.0003 µM): 2852 pg/mL and 3016 pg/mL
TNF-α % reduction (0.0003 µM): -22%
TNF-α [pg/mL], Mean (0.0003 µM): 10856 pg/mL
TNF-α [pg/mL], individual value (0.0003 µM): 11484 pg/mL and 10228 pg/mL
IL-1β % reduction (0.001 µM): -2.29%
IL-1β [pg/mL], Mean (0.001 µM): 13078 pg/mL
IL-1β [pg/mL], individual value (0.001 µM): 12492 pg/mL and 13663 pg/mL
IL-6 % reduction (0.001 µM): 15%
IL-6 [pg/mL], Mean (0.001 µM): 29537 pg/mL
IL-6 [pg/mL], individual value (0.001 µM): 27758 pg/mL and 31316 pg/mL
IL-8 % reduction (0.001 µM): 7%
IL-8 [pg/mL], Mean (0.001 µM): 2887 pg/mL
IL-8 [pg/mL], individual value (0.001 µM): 2894 pg/mL and 2879 pg/mL
TNF-α % reduction (0.001 µM): 26%
TNF-α [pg/mL], Mean (0.001 µM): 6648 pg/mL
TNF-α [pg/mL], individual value (0.001 µM): 6422 pg/mL and 6874 pg/mL
IL-1β % reduction (0.003 µM): 3%
IL-1β [pg/mL], Mean (0.003 µM): 12382 pg/mL
IL-1β [pg/mL], individual value (0.003 µM): 12441 pg/mL and 12322 pg/mL
IL-6 % reduction (0.003 µM): 23%
IL-6 [pg/mL], Mean (0.003 µM): 26733 pg/mL
IL-6 [pg/mL], individual value (0.003 µM): 25302 pg/mL and 28163 pg/mL
IL-8 % reduction (0.003 µM): 16%
IL-8 [pg/mL], Mean (0.003 µM): 2739 pg/mL
IL-8 [pg/mL], individual value (0.003 µM): 2727 pg/mL and 2751 pg/mL
TNF-α % reduction (0.003 µM): 36%
TNF-α [pg/mL], Mean (0.003 µM): 5707 pg/mL
TNF-α [pg/mL], individual value (0.003 µM): 6398 pg/mL and 5017 pg/mL
IL-1β % reduction (0.01 µM): 12%
IL-1β [pg/mL], Mean (0.01 µM): 11212 pg/mL
IL-1β [pg/mL], individual value (0.01 µM): 11146 pg/mL and 11278 pg/mL
IL-6 % reduction (0.01 µM): 26%
IL-6 [pg/mL], Mean (0.01 µM): 25776 pg/mL
IL-6 [pg/mL], individual value (0.01 µM): 24216 pg/mL and 27336 pg/mL
IL-8 % reduction (0.01 µM): 23%
IL-8 [pg/mL], Mean (0.01 µM): 2621 pg/mL
IL-8 [pg/mL], individual value (0.01 µM): 2587 pg/mL and 2655 pg/mL
TNF-α % reduction (0.01 µM): 34%
TNF-α [pg/mL], Mean (0.01 µM): 5893 pg/mL
TNF-α [pg/mL], individual value (0.01 µM): 5929 pg/mL and 5857 pg/mL
IL-1β % reduction (0.03 µM): 36%
IL-1β [pg/mL], Mean (0.03 µM): 8206 pg/mL
IL-1β [pg/mL], individual value (0.03 µM): 8428 pg/mL and 7983 pg/mL
IL-6 % reduction (0.03 µM): 46%
IL-6 [pg/mL], Mean (0.03 µM): 19008 pg/mL
IL-6 [pg/mL], individual value (0.03 µM): 18119 pg/mL and 19897 pg/mL
IL-8 % reduction (0.03 µM): 24%
IL-8 [pg/mL], Mean (0.03 µM): 2601 pg/mL
IL-8 [pg/mL], individual value (0.03 µM): 2572 pg/mL and 2630 pg/mL
TNF-α % reduction (0.03 µM): 61%
TNF-α [pg/mL], Mean (0.03 µM): 3547 pg/mL
TNF-α [pg/mL], individual value (0.03 µM): 4619 pg/mL and 2475 pg/mL
IL-1β % reduction (0.1 µM): 49%
IL-1β [pg/mL], Mean (0.1 µM): 6554 pg/mL
IL-1β [pg/mL], individual value (0.1 µM): 6360 pg/mL and 6748 pg/mL
IL-6 % reduction (0.1 µM): 46%
IL-6 [pg/mL], Mean (0.1 µM): 18754 pg/mL
IL-6 [pg/mL], individual value (0.1 µM): 18604 pg/mL and 18905 pg/mL
IL-8 % reduction (0.1 µM): 39%
IL-8 [pg/mL], Mean (0.1 µM): 2364 pg/mL
IL-8 [pg/mL], individual value (0.1 µM): 2111 pg/mL and 2616 pg/mL
TNF-α % reduction (0.1 µM): 76%
TNF-α [pg/mL], Mean (0.1 µM): 2172 pg/mL
TNF-α [pg/mL], individual value (0.1 µM): 1964 pg/mL and 2380 pg/mL
IL-1β % reduction (0.3 µM): 47%
IL-1β [pg/mL], Mean (0.3 µM): 6792 pg/mL
IL-1β [pg/mL], individual value (0.3 µM): 7094 pg/mL and 6491 pg/mL
IL-6 % reduction (0.3 µM): 53%
IL-6 [pg/mL], Mean (0.3 µM): 16544 pg/mL
IL-6 [pg/mL], individual value (0.3 µM): 15027 pg/mL and 18061 pg/mL
IL-8 % reduction (0.3 µM): 26%
IL-8 [pg/mL], Mean (0.3 µM): 2569 pg/mL
IL-8 [pg/mL], individual value (0.3 µM): 2679 pg/mL and 2458 pg/mL
TNF-α % reduction (0.3 µM): 67%
TNF-α [pg/mL], Mean (0.3 µM): 2969 pg/mL
TNF-α [pg/mL], individual value (0.3 µM): 3059 pg/mL and 2880 pg/mL
IL-1β % reduction (1 µM): 47%
IL-1β [pg/mL], Mean (1 µM): 6720 pg/mL
IL-1β [pg/mL], individual value (1 µM): 7115 pg/mL and 6325 pg/mL
IL-6 % reduction (1 µM): 53%
IL-6 [pg/mL], Mean (1 µM): 16339 pg/mL
IL-6 [pg/mL], individual value (1 µM): 14576 pg/mL and 18103 pg/mL
IL-8 % reduction (1 µM): 46%
IL-8 [pg/mL], Mean (1 µM): 2244 pg/mL
IL-8 [pg/mL], individual value (1 µM): 2290 pg/mL and 2198 pg/mL
TNF-α % reduction (1 µM): 74%
TNF-α [pg/mL], Mean (1 µM): 2402 pg/mL
TNF-α [pg/mL], individual value (1 µM): 1732 pg/mL and 3073 pg/mL
all measured LPS-induced cytokines and chemokines in supernatant (human PBMCs, 0.0003-1 µM): dose-dependent reductions
